According to ChEMBL document CHEMBL1159254, “Isolation and structure of two novel muscarinic receptor antagonists” (J Nat Prod, 1995):

Experiments:
[1] = target: T1, Muscarinic acetylcholine receptor M1 (Homo sapiens, UniProt P11229); test: Displacement of QNB from muscarinic M1 receptor
T1 sequence (P11229 whole entry): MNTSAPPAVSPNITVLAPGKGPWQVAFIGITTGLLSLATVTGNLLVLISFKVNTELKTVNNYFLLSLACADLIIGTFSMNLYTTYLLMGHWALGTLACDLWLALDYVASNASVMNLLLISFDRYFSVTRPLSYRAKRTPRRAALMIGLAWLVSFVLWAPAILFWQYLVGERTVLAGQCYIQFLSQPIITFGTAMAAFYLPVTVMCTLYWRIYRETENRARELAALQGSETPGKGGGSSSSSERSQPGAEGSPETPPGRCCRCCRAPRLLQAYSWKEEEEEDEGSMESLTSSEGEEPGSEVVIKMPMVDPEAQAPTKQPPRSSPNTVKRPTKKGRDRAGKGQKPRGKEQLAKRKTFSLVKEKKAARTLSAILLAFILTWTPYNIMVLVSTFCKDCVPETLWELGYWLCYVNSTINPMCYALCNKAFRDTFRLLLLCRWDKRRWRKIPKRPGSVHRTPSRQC

[2] = target: T2, Muscarinic acetylcholine receptor M2 (Homo sapiens, UniProt P08172); test: Displacement of QNB from muscarinic M2 receptor
T2 sequence (P08172 whole entry): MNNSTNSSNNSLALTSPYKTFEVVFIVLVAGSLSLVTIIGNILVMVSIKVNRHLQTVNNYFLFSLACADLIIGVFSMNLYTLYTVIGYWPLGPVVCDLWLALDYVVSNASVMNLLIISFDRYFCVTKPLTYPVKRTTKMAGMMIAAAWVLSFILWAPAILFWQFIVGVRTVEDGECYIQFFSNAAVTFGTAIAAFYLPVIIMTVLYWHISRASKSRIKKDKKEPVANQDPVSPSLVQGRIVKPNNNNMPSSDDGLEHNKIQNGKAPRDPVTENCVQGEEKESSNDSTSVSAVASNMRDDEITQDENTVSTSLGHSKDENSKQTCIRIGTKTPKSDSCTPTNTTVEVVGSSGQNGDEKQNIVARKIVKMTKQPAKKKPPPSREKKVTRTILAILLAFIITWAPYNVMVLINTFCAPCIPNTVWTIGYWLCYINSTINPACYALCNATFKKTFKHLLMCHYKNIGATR

[3] = target: T3, Muscarinic acetylcholine receptor M4 (Homo sapiens, UniProt P08173); test: Displacement of QNB from muscarinic M4 receptor
T3 sequence (P08173 whole entry): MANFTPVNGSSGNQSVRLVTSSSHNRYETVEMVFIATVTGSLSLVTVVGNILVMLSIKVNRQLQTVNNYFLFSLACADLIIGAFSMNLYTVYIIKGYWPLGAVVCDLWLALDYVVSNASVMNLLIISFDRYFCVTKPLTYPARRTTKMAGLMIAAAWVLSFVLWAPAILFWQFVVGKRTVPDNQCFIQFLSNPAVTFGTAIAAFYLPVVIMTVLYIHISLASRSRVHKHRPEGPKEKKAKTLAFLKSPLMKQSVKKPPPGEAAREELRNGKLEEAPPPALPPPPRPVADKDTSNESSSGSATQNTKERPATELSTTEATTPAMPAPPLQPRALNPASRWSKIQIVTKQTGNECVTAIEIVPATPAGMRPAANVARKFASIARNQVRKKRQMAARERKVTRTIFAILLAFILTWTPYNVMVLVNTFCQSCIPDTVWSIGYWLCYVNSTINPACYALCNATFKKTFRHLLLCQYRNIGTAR

IC50 [1] [nM]	IC50 [2] [nM]	IC50 [3] [nM]	SMILES
1410	960	910	CC(=O)NC(CCCNC(=N)N)C(=O)CCCCCCCCNC(=N)N (stereo unspecified)
7	6	10	NC(N)=NCCCCCCCCC(=O)C(N)CCCN=C(N)N (stereo unspecified)
